The source of these data is US20250353859A1, “COMPOUNDS AS CCR6 INHIBITORS” (Hoffmann-La Roche Inc., priority 2023, published 2025).

SMILES strings stand for the structures.

One assay has as its target T1, human CCR6 (Homo sapiens, UniProt P51684).
T1 sequence (P51684 1-374): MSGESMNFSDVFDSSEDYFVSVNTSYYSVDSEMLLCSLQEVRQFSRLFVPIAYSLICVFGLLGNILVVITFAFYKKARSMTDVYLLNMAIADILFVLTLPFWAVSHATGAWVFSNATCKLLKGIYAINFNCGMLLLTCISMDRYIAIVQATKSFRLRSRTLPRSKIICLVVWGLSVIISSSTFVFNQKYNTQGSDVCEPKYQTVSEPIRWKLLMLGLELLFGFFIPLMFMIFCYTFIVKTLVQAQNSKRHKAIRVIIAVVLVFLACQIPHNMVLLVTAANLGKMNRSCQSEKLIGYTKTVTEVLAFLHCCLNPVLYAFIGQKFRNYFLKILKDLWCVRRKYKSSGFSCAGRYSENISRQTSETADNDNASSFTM
The assay can be described thus: Human CCR6-CRE reporter assay. Conditions: 293FT cells transfected with human CCR6 and CRE-luciferase; Forskolin + CCL20, 5 h; relative Log IC50; read-out: CCR6-CRE reporter (converted). Set-up: The second construct contained the open reading frame of human CCR6 in the pUNO1 backbone; host or cells: 293FT cells (transient transfection with TransIT-293). Type of assay: cell-based. How it is done:
293FT cells were transfected with 2 constructs using TransIT-293 (Mirus). The first construct (pGL4.29, Promega) expressed the luciferase reporter gene luc2P in response to the binding of cAMP-induced CREB to the CREelement in its promoter. The second construct contained the open reading frame of human CCR6 in the pUNO1 backbone under the control of an enhanced CMV promoter(InVivoGen).48 h after transfection, cells were harvested and diluted to 750,000 cells/ml in culture medium (DMEM, 10% FBS, 1× pen/strep(Gibco 15140)). Compounds were 2.5-fold serially diluted in DMSO. Further dilutions were made in assay medium (DMEM, 10% FBS, 1× pen/strep, 6 μM Forskolin, 6 nM CCL20). 4 μl of the compound solution was added to a white MW384 plate, followed by […] of the cell suspension. Final DMSO concentration in the assay was 0.1%. The MW384 plate was placed in an incubator at 37° C., 5% CO2 for 5 h. Luciferase activity was determined by addition of 24 μl of a 2.5× diluted BriteLite luciferase solution(Perkin Elmer), followed by luminescence measurement using a VICTOR Plate reader (Perkin Elmer). […] The relative Log IC50 was determined with GraphPad Prism 9 using a four-parameter dose-response model.
For `O=C1NCc2ccc(-c3ccc(S(=O)(=O)N4CCC(Nc5cccc(OC(F)(F)F)c5)CC4)cc3)cc21` [Example 10, 6-{4-[(4-{[3-(trifluoromethoxy)phenyl]Amino}piperidin-1-yl)sulfonyl]phenyl}-2,3-dihydro-1H-isoindol-1-one], the IC50 is 3160 nM. Still for that read-out and setting: the same measure for `Cc1n[nH]c2ccc(-c3ccc(S(=O)(=O)N4CCC(Nc5ccc(OC(F)F)cc5)CC4)cc3)cc12` [Example 27, N-[4-(difluoromethoxy)phenyl]-1-[4-(3-methyl-1H-indazol-5-yl)benzenesulfonyl]piperidin-4-amine]: 200 nM; for `CC1CC(Nc2ccc(OC(F)(F)F)cc2)CCN1S(=O)(=O)c1ccc(-c2ccc(C#N)cc2)cc1` (centres unmarked) [Example 36, 4′-[(2-methyl-4-{[4-(trifluoromethoxy)phenyl]Amino}piperidin-1-yl)sulfonyl]-[1,1′-biphenyl]-4-carbonitrile]: 398 nM. Same read-out and setting: the same measure for `CC(C)c1cnc2ccc(-c3ccc(S(=O)(=O)N4CCC(Nc5ccc(SC(F)(F)F)cn5)CC4)cc3)cn12` [Example 64, N-(1-{4-[3-(propan-2-yl)imidazo[1,2-a]pyridin-6-yl]benzenesulfonyl}piperidin-4-yl)-5-[(trifluoromethyl)sulfanyl]pyridin-2-amine]: 39.8 nM.

For the compound `NC(=O)c1cc(-c2ccc(S(=O)(=O)N3CCC(Nc4ccc(SC(F)(F)F)cc4)CC3)cc2)ccn1` [Example 34, 4-(4-{[4-({4-[(trifluoromethyl)sulfanyl]phenyl}Amino)piperidin-1-yl]sulfonyl}phenyl)pyridine-2-carboxamide], the IC50 was 63.1 nM.

Consider `Cc1cc(-c2ccc(S(=O)(=O)N3CCC(Nc4cc(OC(F)(F)F)ccn4)CC3)cc2)cn2c(C(C)C)cnc12` [Example 69, N-(1-{4-[8-methyl-3-(propan-2-yl)imidazo[1,2-a]pyridin-6-yl]benzenesulfonyl}piperidin-4-yl)-4-(trifluoromethoxy)pyridin-2-amine], for which the IC50 was 1260 nM. Regarding `Cc1cnc2ccc(-c3ccc(S(=O)(=O)N4CCC(Nc5ccc(OC(F)(F)F)cc5)CC4)cc3)cn12` [Example 16, 1-(4-{3-methylimidazo[1,2-a]pyridin-6-yl}benzenesulfonyl)-N-[4-(trifluoromethoxy)phenyl]piperidin-4-amine], the IC50 is 79.4 nM. The same measure, in the same setting: the figure for `CC(C)c1cnc2ccc(-c3ccc(S(=O)(=O)N4CCC(Nc5ccc(SC(F)(F)F)cc5)CC4)cc3)cn12` [Example 31, 1-{4-[3-(propan-2-yl)imidazo[1,2-a]pyridin-6-yl]benzenesulfonyl}-N-{4-[(trifluoromethyl)sulfanyl]phenyl}piperidin-4-amine] is 50.1 nM; for `CC1CC(Nc2ccc(OC(F)(F)F)cc2)CCN1S(=O)(=O)c1ccc(-c2ccccc2)cc1` (centres unmarked) [Example 35, 1-{[1,1′-biphenyl]-4-sulfonyl}-2-methyl-N-[4-(trifluoromethoxy)phenyl]piperidin-4-amine] it is 2510 nM. Still for that read-out and setting: the figure for `N=S(=O)(c1ccc(-c2ccc3nccn3c2)cc1)[C@H]1CC[C@H](Nc2ccc(OC(F)(F)F)cn2)CC1` (stereo partly drawn) [Example 54, (4-{imidazo[1,2-a]pyridin-6-yl}phenyl)[trans-4-{[5-(trifluoromethoxy)pyridin-2-yl]Amino}cyclohexyl](imino)-λ^6-sulfanone] is 631 nM; for `COCc1nnc2ccc(-c3ccc(S(=O)(=O)N4CCC(Nc5ccc(OC(F)(F)F)cc5)CC4)cc3)cn12` [Example 22, 1-{4-[3-(methoxymethyl)-[1,2,4]triazolo[4,3-a]pyridin-6-yl]benzenesulfonyl}-N-[4-(trifluoromethoxy)phenyl]piperidin-4-amine] it is 251 nM.

Consider `NC(=O)c1cccc(-c2ccc(S(=O)(=O)N3CCC(Nc4ccc(OC(F)(F)F)cc4)CC3)cc2)c1` [Example 5, 4′-[(4-{[4-(trifluoromethoxy)phenyl]Amino}piperidin-1-yl)sulfonyl]-[1,1′-biphenyl]-3-carboxamide], for which the IC50 was 126 nM. Still for that read-out and setting: the same measure for `O=S(=O)(c1ccc(-c2ccc3nccn3c2)cc1)[C@H]1CC[C@H](Nc2ccc(OC(F)(F)F)cn2)CC1` [Example 73, N-[trans-4-(4-{imidazo[1,2-a]pyridin-6-yl}benzenesulfonyl)cyclohexyl]-5-(trifluoromethoxy)pyridin-2-amine]: 126 nM; for `N#Cc1ccc(-c2ccc(S(=O)(=O)[C@H]3CC[C@H](Nc4ccc(OC(F)(F)F)cc4)CC3)cc2)cc1` [Example 39, 4′-{[trans-4-{[4-(trifluoromethoxy)phenyl]Amino}cyclohexyl]sulfonyl}-[1,1′-biphenyl]-4-carbonitrile]: 100 nM. With `N=S(=O)(c1ccc(-c2ccc3nccn3c2)cc1)[C@H]1CC[C@H](Nc2ccc(SC(F)(F)F)cc2)CC1` (stereo partly drawn) [Example 52, (4-{imidazo[1,2-a]pyridin-6-yl}phenyl)[trans-4-({4-[(trifluoromethyl)sulfanyl]phenyl}Amino)cyclohexyl](imino)-λ^6-sulfanone], the IC50 was 158 nM. Still for that read-out and setting: the same measure for `CC(C)c1cnc2ccc(-c3ccc(S(=O)(=O)[C@H]4CC[C@H](Nc5cccc(SC(F)(F)F)c5)CC4)cc3)cn12` [Example 47, N-[trans-4-{4-[3-(propan-2-yl)imidazo[1,2-a]pyridin-6-yl]benzenesulfonyl}cyclohexyl]-3-[(trifluoromethyl)sulfanyl]aniline]: 100 nM; for `CC1CC(Nc2ccc(OC(F)(F)F)cc2)CCN1S(=O)(=O)c1ccc(-c2ccc3c(c2)C(=O)NC3)cc1` (centres unmarked) [Example 37, 6-{4-[(2-methyl-4-{[4-(trifluoromethoxy)phenyl]Amino}piperidin-1-yl)sulfonyl]phenyl}-2,3-dihydro-1H-isoindol-1-one]: 251 nM; for `O=S(=O)(c1ccc(-c2ccccc2)cc1)N1CCC(Nc2ccc(OC(F)(F)F)cc2)CC1` [Example 25, 1-{[1,1′-biphenyl]-4-sulfonyl}-N-[4-(trifluoromethoxy)phenyl]piperidin-4-amine]: 631 nM.

For the compound `Cc1cc(-c2ccc(S(=O)(=O)N3CCC(Nc4cc(OC(F)(F)F)ccn4)CC3)cc2)cn2c(C(C)C)nnc12` [Example 71, N-(1-{4-[8-methyl-3-(propan-2-yl)-[1,2,4]triazolo[4,3-a]pyridin-6-yl]benzenesulfonyl}piperidin-4-yl)-4-(trifluoromethoxy)pyridin-2-amine], the IC50 is 1000 nM. Still for that read-out and setting: the figure for `O=S(=O)(c1ccc(-c2ccccc2)cc1)N1CCC(Nc2ccc(OC(F)F)cc2)CC1` [Example 26, 1-{[1,1′-biphenyl]-4-sulfonyl}-N-[4-(difluoromethoxy)phenyl]piperidin-4-amine] is 501 nM; for `O=c1[nH]nc2ccc(-c3ccc(S(=O)(=O)[C@H]4CC[C@H](Nc5ccc(SC(F)(F)F)cc5)CC4)cc3)cn12` [Example 50, 6-(4-{[trans-4-({4-[(trifluoromethyl)sulfanyl]phenyl}Amino)cyclohexyl]sulfonyl}phenyl)-2H,3H-[1,2,4]triazolo[4,3-a]pyridin-3-one] it is 79.4 nM.

Consider `N#Cc1ccc(-c2ccc(S(=O)(=O)[C@H]3CC[C@H](Nc4cccc(OC(F)(F)F)c4)CC3)cc2)cc1` [Example 40, 4′-{[trans-4-{[3-(trifluoromethoxy)phenyl]Amino}cyclohexyl]sulfonyl}-[1,1′-biphenyl]-4-carbonitrile], for which the IC50 is 398 nM. Still for that read-out and setting: the figure for `N#Cc1ccc(-c2ccc(S(=O)(=O)N3CCC(Nc4cccc(OC(F)F)c4)CC3)cc2)cc1` [Example 2, 4′-[(4-{[3-(difluoromethoxy)phenyl]Amino}piperidin-1-yl)sulfonyl]-[1,1′-biphenyl]-4-carbonitrile] is 398 nM.

Still in this assay, the particulars now being: scaffold variant X = O, R1 = CF3; read-out: Activity in human CCR6-CRE reporter assay.
Consider `O=S(=O)(c1ccc(-c2ccc3nccn3c2)cc1)N1CCC(Nc2ccc(OC(F)(F)F)cn2)CC1` [Example 12, N-[1-(4-{imidazo[1,2-a]pyridin-6-yl}benzenesulfonyl)piperidin-4-yl]-5-(trifluoromethoxy)pyridin-2-amine], for which the IC50 is 150 nM. As for `O=S(=O)(c1ccc(-c2ccccc2)cc1)N1CCC(Nc2ccc(OC(F)(F)F)cc2)CC1` [Example 25, 1-{[1,1′-biphenyl]-4-sulfonyl}-N-[4-(trifluoromethoxy)phenyl]piperidin-4-amine], the IC50 was determined as 1100 nM. On the same count and under the same terms, the figure for `NC(=O)c1cc(-c2ccc(S(=O)(=O)N3CCC(Nc4ccc(OC(F)(F)F)cn4)CC3)cc2)ccn1` [Example 58, 4-{4-[(4-{[5-(trifluoromethoxy)pyridin-2-yl]amino}piperidin-1-yl)sulfonyl]phenyl}pyridine-2-carboxamide] is 62 nM.
